Measured values reported in US20260355192A1, “PROPHYLACTIC OR THERAPEUTIC AGENT FOR PERIOSTIN-MEDIATED DISEASE AND PRURITUS ASSOCIATED THEREWITH” (SAGA UNIVERSITY, priority 2022, published 2026).

B1: nemolizumab: anti-IL-31 receptor antibody (antibody, chains of the INN, looked up)
heavy: QVQLVQSGAEVKKPGASVKVSCKASGYTFTGYIMNWVRQAPGQGLEWMGLINPYNGGTDYNPQFQDRVTITADKSTSTAYMELSSLRSEDTAVYYCARDGYDDGPYTLETWGQGTLVTVSSASTKGPSVFPLAPSSKSTSGGTAALGCLVKDYFPEPVTVSWNSGALTSGVHTFPAVLQSSGLYSLSSVVTVPSSNFGTQTYTCNVDHKPSNTKVDKTVERKSCVECPPCPAPPVAGPSVFLFPPKPKDTLMISRTPEVTCVVVDVSQEDPEVQFNWYVDGVEVHNAKTKPREEQFNSTFRVVSVLTVVHQDWLNGKEYKCKVSNKGLPAPIEKTISKTKGQPREPQVYTLPPSQEEMTKNQVSLTCLVKGFYPSDIAVEWESNGQPENNYKTTPPMLDSDGSFFLYSKLTVDKSRWQEGNVFSCSVMHEALHNHYTQKSLSLSP
light: DIQMTQSPSSLSASVGDRVTITCQASEDIYSFVAWYQQKPGKAPKLLIYNAQTEAQGVPSRFSGSGSGTDFTLTISSLQPEDFATYYCQHHYDSPLTFGGGTKVEIKRTVAAPSVFIFPPSDEQLKSGTASVVCLLNNFYPREAKVQWKVDNALQSGNSQESVTEQDSKDSTYSLSSTLTLSKADYEKHKVYACEVTHQGLSSPVTKSFNRGEC

What was measured:
[1] = test system: scratching behaviors in FADS mice; test: Scratching behaviors in FADS mice upon single systemic administration of αvβ3 integrin inhibitors; assay type: in vivo, mouse (FADS, Nestin-cre/Ikk2ff); settings: for % Change from baseline in the number of scratchings (mean ± standard error): 53.7 μmol/kg i.p., single, 60 minutes after administration vs before administration; for grade of effect on % change from the baseline in the number of scratchings: single i.p., 53.7 μmol/kg (GLPG-0187 5.37 μmol/kg), paired t-test
Description: Nestin-cre transgenic mice were crossed with IKK2^ff mice to prepare Nestin-cre/Ikk2^ff mice specifically lacking IKK2 in their facial skin fibroblasts (Nunomura S, et al. J Invest Dermatol. 139:1274-1283, 2019). These mice inevitably develop atopic dermatitis-like rash limited to the face and intense itchy symptoms, and were therefore designated as Facial Atopic Dermatitis with Scratching (FADS) mice. […] For evaluation of the prophylactic or therapeutic agent of the present invention, FADS mice at 3 to 4 weeks of age or older were used because of showing spontaneous scratching behaviors. It should be noted that in this Example section, the above compound of formula (I) (more particularly “CP4715”) was used as the prophylactic or therapeutic agent of the present invention.
FADS mice were acclimated for 20 minutes to the environment of a recording cage, and then recorded with a video camera. The recorded videos were replayed, and scratching behaviors were counted assuming that hind paw scratching to the face and the subsequent movement of toe licking or paw lowering to the ground were regarded as one cycle of scratching behavior.
Prior to the administration of the above αvβ3 integrin inhibitors, FADS mice were recorded for 60 minutes with a video camera and then allowed to rest for 15 minutes. The compounds except for GLPG-0187 were each dissolved at 89.5 mM in a diluent (physiological saline containing 50% DMSO and 89.5 mM HCL), from which an amount corresponding to 53.7 μmol/kg per mouse was then taken and diluted with 0.3 mL of PBS, and then administered intraperitoneally. […] Mice administered with 0.3 mL of PBS containing an equal amount of the diluent as calculated based on the body weight were used as a control group.
The mice were recorded for 60 minutes with a video camera immediately after administration of the above αvβ3 integrin inhibitors. The number of scratchings before administration was used as a baseline, and % change from the baseline after administration was calculated for each compound. For statistical analysis, paired t-test was used. A P-value of less than 0.05 was considered to be statistically significant. The effect of an inhibitor whose mean change from the baseline was −65% or more at a P-value of less than 0.01 was expressed as “++”; the effect of an inhibitor whose mean change from the baseline was −60% or less at a P-value of less than 0.05 was expressed as “+”; and the effect of an inhibitor whose mean change from the baseline was −60% or less at a P-value of 0.05 or higher was expressed as “−.”

integrin αvβ3 [2] = target: T1, integrin αvβ3 (Homo sapiens, UniProt P05106+P06756); test: Inhibition of periostin-dependent adhesion of SW480 cells expressing integrin αvβ3; assay type: cell-based; settings: immobilized recombinant human periostin, FIG. 6; for IC50: SW480 cells expressing human integrin β3, compounds at 0.001-1 μM, read-out: 50% inhibition concentration (IC50 value) for cell adhesion inhibitory activity; for cell adhesion inhibitory effect (in words): SW480 cells expressing integrin αvβ3
T1 construct: SW480 cells, a human colon cancer cell line not expressing integrin β3; expressed in transfected cells; host or cells: SW480 cells (human colon cancer) stably expressing human integrin β3
T1 sequence (P06756 31-889 limits assumed): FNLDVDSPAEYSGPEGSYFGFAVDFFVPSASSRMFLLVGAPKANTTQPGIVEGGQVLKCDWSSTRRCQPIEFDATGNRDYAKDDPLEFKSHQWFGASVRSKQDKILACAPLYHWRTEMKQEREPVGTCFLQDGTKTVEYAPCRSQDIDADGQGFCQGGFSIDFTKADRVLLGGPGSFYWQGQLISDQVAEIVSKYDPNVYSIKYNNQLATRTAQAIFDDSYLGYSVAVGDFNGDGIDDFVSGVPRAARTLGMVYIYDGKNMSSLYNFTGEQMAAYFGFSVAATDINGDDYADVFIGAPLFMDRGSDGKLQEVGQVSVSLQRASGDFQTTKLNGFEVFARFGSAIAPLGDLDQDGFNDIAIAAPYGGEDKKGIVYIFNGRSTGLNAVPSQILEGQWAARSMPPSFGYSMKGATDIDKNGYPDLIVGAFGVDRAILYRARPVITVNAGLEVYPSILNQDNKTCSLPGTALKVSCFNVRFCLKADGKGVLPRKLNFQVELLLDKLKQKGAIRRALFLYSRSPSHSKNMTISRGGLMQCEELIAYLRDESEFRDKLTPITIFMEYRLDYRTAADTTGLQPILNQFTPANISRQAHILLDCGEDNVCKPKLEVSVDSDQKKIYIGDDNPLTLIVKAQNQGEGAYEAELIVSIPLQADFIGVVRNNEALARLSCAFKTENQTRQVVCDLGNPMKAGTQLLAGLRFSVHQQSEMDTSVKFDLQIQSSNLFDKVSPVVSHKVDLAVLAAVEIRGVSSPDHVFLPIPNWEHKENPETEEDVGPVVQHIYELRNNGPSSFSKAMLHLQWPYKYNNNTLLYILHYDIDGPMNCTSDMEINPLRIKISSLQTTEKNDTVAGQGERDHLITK
T1 sequence (P06756 891-1048 partner limits assumed): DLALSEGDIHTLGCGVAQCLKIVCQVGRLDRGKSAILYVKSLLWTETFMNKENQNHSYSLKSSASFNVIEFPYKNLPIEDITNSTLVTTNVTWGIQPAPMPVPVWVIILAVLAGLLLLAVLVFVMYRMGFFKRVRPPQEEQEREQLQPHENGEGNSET
T1 sequence (P05106 27-788): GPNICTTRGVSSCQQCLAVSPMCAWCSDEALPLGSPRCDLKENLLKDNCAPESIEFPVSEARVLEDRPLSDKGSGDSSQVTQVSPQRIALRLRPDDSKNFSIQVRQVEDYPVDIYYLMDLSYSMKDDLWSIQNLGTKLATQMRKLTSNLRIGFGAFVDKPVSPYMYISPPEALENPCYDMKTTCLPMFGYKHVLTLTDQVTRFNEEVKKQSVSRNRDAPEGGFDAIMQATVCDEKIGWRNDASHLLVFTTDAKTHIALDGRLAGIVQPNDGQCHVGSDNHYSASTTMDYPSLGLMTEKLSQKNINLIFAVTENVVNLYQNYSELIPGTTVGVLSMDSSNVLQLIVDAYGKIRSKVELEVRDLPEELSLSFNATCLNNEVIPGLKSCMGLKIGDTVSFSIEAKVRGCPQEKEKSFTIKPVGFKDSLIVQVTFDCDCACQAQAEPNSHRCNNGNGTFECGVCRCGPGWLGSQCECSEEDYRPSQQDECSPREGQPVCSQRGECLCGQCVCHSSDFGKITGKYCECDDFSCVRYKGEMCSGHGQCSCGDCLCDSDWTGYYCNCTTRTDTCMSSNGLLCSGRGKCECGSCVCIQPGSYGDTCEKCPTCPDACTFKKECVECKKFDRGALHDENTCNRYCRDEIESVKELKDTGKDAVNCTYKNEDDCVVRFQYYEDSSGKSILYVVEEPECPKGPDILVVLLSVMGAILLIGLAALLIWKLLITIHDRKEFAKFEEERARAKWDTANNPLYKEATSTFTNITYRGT
Experimental: For use in cell adhesion experiments, SW480 cells, a human colon cancer cell line not expressing integrin β3, were genetically engineered to stably express human integrin β3 (Nanri Y, et al. Am J Respir Cell Mol Biol. 62:204-216, 2020). The compounds shown in Table 1 were examined for their inhibitory activity against adhesion between integrin αvβ3 and periostin according to the following procedures. First, a 96-well plate was treated with 10 μg/mL recombinant human periostin (Bio-Techne) at 4 °C for 16 hours to immobilize periostin. The SW480 cells expressing integrin αvβ3 (5×10^4 cells) were reacted at room temperature for 15 minutes with the above compounds at 0.001, 0.01, 0.1 and 1 μM in serum-free DMEM (Dulbecco's Modified Eagle Medium) containing 0.5% bovine serum albumin and 0.25 mM MnCl2. A group receiving no compound was used as a control. The reacted cell suspensions were added to separate wells of the above human periostin-immobilized plate, and the plate was centrifuged at 10×g for 5 minutes and then cultured at 37 °C for 60 minutes. Then, after the adhered cells were washed to remove unbound cells, the adhered cells were fixed with 1% formaldehyde and stained with 0.5% crystal violet. The fixed and stained cells were solubilized with 0.2% Triton X-100 and measured for absorbance at 595 nm. The absorbance of the control (i.e., the group receiving no compound) was set to 0% inhibition. […] Cell adhesion in this test system is periostin-dependent, and a compound inhibiting this cell adhesion can be referred to as a periostin receptor antagonist.

integrin αvβ3 [3] = settings: cited from earlier work
IL-31 receptor = settings: Kabashima K, et al. N Engl J Med. 383:141-150, 2020; cited from earlier work

| Molecule | % Change from baseline in the number of scratchings (mean ± standard error) [1] | grade of effect on % change from the baseline in the number of scratchings [1] | IC50 (integrin αvβ3 [2]) [nM] | cell adhesion inhibitory effect (in words) (integrin αvβ3 [2]) | inhibition of binding between integrin αvβ3 and vitronectin (integrin αvβ3 [3]) | pruritus (IL-31 receptor) | skin inflammation (IL-31 receptor) |
| --- | --- | --- | --- | --- | --- | --- | --- |
| CC(C)COC(=O)N[C@@H](CCC(=O)N1CCN(c2cccc(NC3=NCC(F)CN3)c2)CC1)C(=O)O (stereo partly drawn) [BS-1417, (2S)-5-(4-(3-((5-fluoro-1,4,5,6-tetrahydropyrimidin-2-yl)amino)phenyl)piperazin-1-yl)-2-((isobutoxycarbonyl)amino)-5-oxopentanoic acid] | −43.3 ± 11.9% | + (mean change from the baseline was −60% or less at a P-value of less than 0.05) | ≥ 1000 |  |  |  |  |
| O=C(NC[C@H](NS(=O)(=O)c1ccccc1)C(=O)O)c1ccc(N2CCC(NC3=NCCCN3)CC2)c(F)c1 [CP derivative 2, (S)-3-(3-fluoro-4-(4-((1,4,5,6-tetrahydropyrimidin-2-yl)amino)piperidin-1-yl)benzamido)-2-(phenylsulfonamido)propanoic acid] | −30.2 ± 18.6% | − (mean change from the baseline was −60% or less at a P-value of 0.05 or higher) | ≤ 1 | high |  |  |  |
| O=C(NC[C@H](NS(=O)(=O)c1ccccc1)C(=O)O)c1ccc(N2CCC[C@H](NC3=NCCCN3)C2)cc1F [CP derivative 7, (S)-3-(2-fluoro-4-((S)-3-((1,4,5,6-tetrahydropyrimidin-2-yl)amino)piperidin-1-yl)benzamido)-2-(phenylsulfonamido)propanoic acid] | −52.0 ± 26.6% | − (mean change from the baseline was −60% or less at a P-value of 0.05 or higher) | ≤ 1 | high |  |  |  |
| O=C(NC[C@H](NS(=O)(=O)c1cccs1)C(=O)O)c1ccc(N2CCC[C@H](NC3=NCCCN3)C2)cc1 [CP derivative 9, (S)-3-(4-((S)-3-((1,4,5,6-tetrahydropyrimidin-2-yl)amino)piperidin-1-yl)benzamido)-2-(thiophene-2-sulfonamido)propanoic acid] | −24.5 ± 19.9% | − (mean change from the baseline was −60% or less at a P-value of 0.05 or higher) | ≤ 1 | high |  |  |  |
| CC(C)[C@H]1C(=O)N[C@@H](CCCNC(=N)N)C(=O)NCC(=O)N[C@@H](CC(=O)O)C(=O)N[C@H](Cc2ccccc2)C(=O)N1C [Cilengitide, 2-((2S,5R,8S,11S)-5-benzyl-11-(3-guanidinopropyl)-8-isopropyl-7-methyl-3,6,9,12,15-pentaoxo-1,4,7,10,13-pentaazacyclopentadecan-2-yl)acetic acid] | −31.7 ± 17.8% |  |  |  |  |  |  |
| O=C(O)C[C@H]1Cc2ccc(OCCCNc3ccccn3)cc2CN(CC(F)(F)F)C1=O [SB-267268 enantiomer, (R)-2-(3-oxo-8-(3-(pyridin-2-ylamino)propoxy)-2-(2,2,2-trifluoroethyl)-2,3,4,5-tetrahydro-1H-benzo[c]azepin-4-yl)acetic acid] | +45.5 ± 28.8% |  | ≥ 1000 |  |  |  |  |
| O=C(O)C[C@@H]1Cc2ccc(OCCCNc3ccccn3)cc2CN(CC(F)(F)F)C1=O [SB-267268, (S)-2-(3-oxo-8-(3-(pyridin-2-ylamino)propoxy)-2-(2,2,2-trifluoroethyl)-2,3,4,5-tetrahydro-1H-benzo[c]azepin-4-yl)acetic acid] | −5.5 ± 13.4% | − (mean change from the baseline was −60% or less at a P-value of 0.05 or higher) | ≤ 20 | moderate |  |  |  |
| CNc1cccc(CCOc2ccc3c(c2)CN(CC(F)(F)F)C(=O)[C@H](CC(=O)O)C3)n1 [SB-273005, (S)-2-(8-(2-(6-(methylamino)pyridin-2-yl)ethoxy)-3-oxo-2-(2,2,2-trifluoroethyl)-2,3,4,5-tetrahydro-1H-benzo[c]azepin-4-yl)acetic acid] | −33.0 ± 11.6% | + (mean change from the baseline was −60% or less at a P-value of less than 0.05) | ≤ 20 | moderate |  |  |  |
| N=C(N)Nc1cccc(C(=O)NCC(=O)NC(CC(=O)O)c2cc(Cl)cc(Cl)c2)c1 (centres unmarked) [SC-68448, 3-(3,5-Dichlorophenyl)-3-(2-(3-guanidinobenzamido)acetamido)propanoic acid] | −83.8 ± 7.7% | ++ (mean change from the baseline was −65% or more at a P-value of less than 0.01) |  | moderate | inhibit binding |  |  |
| Cc1cc(C)c(S(=O)(=O)N[C@@H](CNC(=O)c2ccc3c(cnn3CCCNc3ncc[nH]3)c2)C(=O)O)c(C)c1 [SM-256, (S)-3-(1-(3-((1H-imidazol-2-yl)amino)propyl)-1H-indazole-5-carboxamido)-2-((2,4,6-trimethylphenyl)sulfonamido)propanoic acid] | −22.5 ± 19.6% |  | ≤ 100 | low |  |  |  |
| B1 |  |  |  |  |  | improve pruritus | improving effect on skin inflammation |
